Measurements from patent US5637570A, “Disubstituted and trisubstituted derivatives of 2,3:4,6-di-O-isopropylidene-α-L-xylo-2-hexulofuranosonic acid having anti-cancer, anti-inflammatory and anti-proliferative activity” (Chemora Pharmochem, priority 1995, dated 1997).
Read-outs that look alike come from different tables or passages of the source.

Legend:
[1] = test system: T cells (splenic T cell proliferation, co-cultured spleen cells from two strains of mice); test: Mixed lymphocyte response (MLR); format: cell-based; settings: Mus musculus, Anti-inflammatory/Anti-proliferative Activity
Excerpt: i Mixed lymphocyte response (MLR).
(§1) The MLR assay measures the effects of a study compound on the activation and antigen presentation of T-lymphocytes, therefore determining immunomodulatory properties. The mouse spleen cell mitogen-induced blastogenesis and the BUD-8 human fibroblast proliferation assays measure the effects of the compounds of the present invention on cellular proliferation of cells involved in the pathogenesis of autoimmune diseases. These two assays are appropriate as screens to ascertain anti-inflammatory and/or autoimmune diseases.
The MLR is a classical assay used to measure T cell function by studying the proliferation response of T cells which are activated in vitro by genetically disparate stimulator cells. This is accomplished by co-culturing spleen cells from two different strains of mice. Splenic T cell proliferation occurs as a result of cellular activation signals generated by the ongoing cellular interactions.
(§2) The detailed experimental procedure for the above-mentioned assays is described in detail in U.S. Pat. Nos. 5,360,790 and 5,367,062 incorporated herein by reference.

[2] = test system: mouse spleen cell (T-lymphocyte); test: Concanavalin A (CON-A) assay, mouse spleen cell mitogen induced blastogenesis; format: cell-based; settings: Anti-inflammatory/Anti-proliferative Activity
Excerpt: iii Concanavalin A assay (the mouse spleen cell mitogen induced blastogenesis).
as §1
It is known that the induction and maintenance of most inflammatory diseases are typically due to the unrestricted activity of T-lymphocytes. Therefore, it is advantageous to identify compounds which are modulators of T-lymphocyte activity for eventual use in the regulation of inflammatory diseases, including acquired immune deficiency syndrome, psoriasis, systemic lupus, erythromatosus, and rheumatoid arthritis.
as §2

[3] = test system: BUD-8 human fibroblast; test: BUD-8 human cell line fibroblast proliferation assay (FIB.); format: cell-based; settings: Anti-inflammatory/Anti-proliferative Activity
Excerpt: ii BUD-8 human cell line fibroblast proliferation assay.
as §1
The skin cell fibroblast line, BUD-8, was originally derived from the normal skin of a person and can now be obtained from the American Type Culture Collection, Rockville, Md.
as §2

[4] = test system: human tumor cell lines (approximately 60); test: NCI in vitro human tumor cell line screen (SRB), mean graph midpoints over all cell lines; format: cell-based; settings: for CC50 / GI50 / IC (TGI): Homo sapiens, average of all cell lines, 48 h; for CC50: 50% cell death (-50% growth), read-out: log10 LC50 mean graph midpoint (converted); for IC (TGI): total cell growth inhibition (0% growth), read-out: log10 TGI mean graph midpoint (converted); for in vitro activity in words: various in vitro cell lines, IC50, average GI50, mean graph pattern
Procedure: In performing in vitro human tumor cell line assay, a total of approximately 60 human tumor cell lines derived from ten cancer types (leukemia, non-small cell lung cancer, small cell lung cancer, colon cancer, CNS cancer, melanoma, ovarian cancer, renal cancer, breast cancer and prostate cancer) were used in this assay. Compounds were tested at different concentrations against every cell line. All lines are inoculated into a series of standard 96-well microtiter plates on day 0, in the majority of cases at 20,000 cells/well, and then pre-incubated in the absence of testing agent for 24 hours. A testing agent was then added in five 10-fold dilutions and incubated for a further period of 48 hours. Following this, the cells are fixed in situ, washed, and dried. Sulforhodamine B (SRB, protein binding dye) is added, followed by further washing and drying of the stained adherent cell mass. The bound stain is solubilized and measured spectrophotometrically on an automatic plate reader.
For each compound, dose response curves for each cell line were measured with five different drug concentrations, and the concentration causing 50% cell growth inhibition (GI50), total cell growth inhibition (TGI, 0% growth), and 50% cell death (LC50, -50% growth) compared with the control was calculated. […] In these graphs, the mean logarithmic value of GI50 in all cell lines for each tested compound is used as the midpoint of that bar graph.

[5] = test system: P388 Murine Leukemia; test: P388 Murine Leukemia in vivo
Procedure: Two of the compounds of the present invention (Ic and Im) were also tested against P388 Murine Leukemia.

[6] = test system: COLO 205 Colon Tumor Xenografts; test: Early Stage SC COLO 205 Colon Tumor Xenografts; settings: for Drug Deaths: of 6 mice; for Opt. % T/C: >40 considered inactive
Procedure: (§3) In this in vivo model Murine or human tumor fragments (30 mg) are implanted subcutaneously into the axillary region of pathogen-free immunocompetent or immunodefficient mice, respectively, on experimental day 0. Test agent treatment is initiated either on the day which is historically associated with the start of tumor growth, or when the tumor is palpable. Tumor size and body weights are obtained approximately two times per week. Tumor weights are calculated from caliper measurements of tumor dimensions in mm using the formula for a prolate ellipsoid:
(§4) (L×W^2)/2; where L is the longer of the 2 measurements
(§5) Generally, tumor size is monitored until an upper weight limit of 500 mg is attained.

[7] = test system: UACC-62 Melanoma Xenografts; test: Early Stage Subcutaneous Tumor Model UACC-62 Melanoma Xenografts; settings: for Drug Deaths: of 6 mice; for Opt. % T/C: >40 considered inactive
Procedure: as §3, §4, §5

[8] = test system: SK-MEL-28 Melanoma Xenografts; test: Early Stage SK-MEL-28 Melanoma Xenografts; settings: for Drug Deaths: of 6 mice; for Opt. % T/C: >40 considered inactive
Procedure: as §3, §4, §5

[9] = 50% cell growth inhibition, read-out: GI50 (average)
[10] = log10 of molar concentration, read-out: log10 I50 (log10 GI50 mean graph midpoint) (converted)
[11] = Ic 60, 40 and 27 mg/kg/dose, Im 120, 80 and 54 mg/kg/dose
[12] = 200 mg/kg/dose IP Q4D × 3, day 7
[13] = 134 mg/kg/dose IP Q4D × 3, day 6
[14] = 200 mg/kg/dose IP Q4D × 3, day 6
[15] = 200 mg/kg/dose IP QD × 5, day 3

CCCCCCCCCCCCOC[C@@]12O[C@@H](CN3CCCC3)[C@@H](O)[C@@H]1OC(C)(C)O2 [Ia, 2,3-O-Isopropylidene-6-deoxy-6-(1-pyrrolidinyl)-1-O-dodecyl-α-L-xylo-2-hexulofuranose]
IC50 [1]: < 1 µM
IC50 [2]: < 1 µM
IC50 [3]: < 3 µM
CC50 [4]: 13.2 µM
GI50 [4, 9]: 4.21 µM
GI50 [4, 10]: 0.204 µM
IC (TGI) [4]: 4.37 µM

CCCCCCCCCCCCOC[C@@]12O[C@@H](CN3CCOCC3)[C@@H](O)[C@@H]1OC(C)(C)O2 [Ic, 2,3-O-Isopropylidene-6-deoxy-6-(1-morpholinyl)-1-O-dodecyl-α-L-xylo-2-hexulofuranose]
IC50 [1]: < 1 µM
IC50 [2]: 10.3 µM
antitumor activity [5, 11]: only slight antitumor activity
toxicity [5, 11]: toxic at the higher dose levels
maximally tolerated dose ([5]; mouse, in vivo): a maximally tolerated dose was not achieved
Drug Deaths ([6]; 90 mg/kg/dose IP Q4D × 3, day 7): 0
Drug Deaths ([6]; 134 mg/kg/dose IP Q4D × 3, day 7): 1
Opt. % T/C ([6]; 134 mg/kg/dose IP Q4D × 3, day 7, optimum on day 29): 40%
Opt. % T/C [6, 12]: Toxic
Drug Deaths [6, 12]: 6
Opt. % T/C ([6]; Ic 90 mg/kg/dose IP Q4D × 3, day 7, optimum on day 36): 43%
IC50 [3]: 14.8 µM
Drug Deaths ([7]; 90 mg/kg/dose IP Q4D × 3, day 6): 0
Opt. % T/C ([7]; 90 mg/kg/dose IP Q4D × 3, day 6, optimum on day 16): 39%
Opt. % T/C [7, 13]: Toxic
Drug Deaths [7, 13]: 6
Opt. % T/C [7, 14]: Toxic
Drug Deaths [7, 14]: 6
Drug Deaths ([8]; 90 mg/kg/dose IP QD × 5, day 3): 0
Drug Deaths ([8]; 134 mg/kg/dose IP QD × 5, day 3): 1
Opt. % T/C ([8]; 134 mg/kg/dose IP QD × 5, day 3, optimum on day 9): 36%
Opt. % T/C [8, 15]: Toxic
Drug Deaths [8, 15]: 6
Opt. % T/C ([8]; Ic 90 mg/kg/dose IP QD × 5, day 3, optimum on day 16): 35%
CC50 [4]: 56.2 µM
GI50 [4, 9]: 31.6 µM
GI50 [4, 10]: 14.5 µM
IC (TGI) [4]: 29.5 µM
in vitro activity in words [4]: significant activity in various in vitro cell lines

CCCCCCCCCCCCOC[C@@]12O[C@@H](CN3CCCCCC3)[C@@H](O)[C@@H]1OC(C)(C)O2 [Id, 2,3-O-Isopropylidene-6-deoxy-6-(1-hexamethyleneimino)-1-O-dodecyl-α-L-xylo-2-hexulofuranose]
IC50 [1]: < 1 µM
IC50 [2]: < 3 µM
IC50 [3]: < 3 µM
CC50 [4]: 10.7 µM
GI50 [4, 9]: 3.87 µM
GI50 [4, 10]: 1.82 µM
IC (TGI) [4]: 4.57 µM

CCCCCCCCCCCCOC[C@@]12O[C@@H](CNCCN3CCOCC3)[C@@H](O)[C@@H]1OC(C)(C)O2 [If, 2,3-O-Isopropylidene-6-deoxy-6-aminoethylmorpholinyl-1-O-dodecyl-α-L-xylo-2-hexulofuranose]
IC50 [1]: < 1 µM
IC50 [2]: < 1 µM
IC50 [3]: < 1 µM
CC50 [4]: 11 µM
GI50 [4, 9]: 4.68 µM
GI50 [4, 10]: 2.34 µM
IC (TGI) [4]: 5.13 µM

CCCCCCCCCCCCOC[C@@]12O[C@@H](CNCCN3CCCCC3)[C@@H](O)[C@@H]1OC(C)(C)O2 [Ig, 2,3-O-Isopropylidene-6-deoxy-6-aminoethylpiperidinyl-1-O-dodecyl-α-L-xylo-2-hexulofuranose]
IC50 [1]: < 1 µM
IC50 [2]: < 3 µM
IC50 [3]: < 3 µM
CC50 [4]: 20 µM
GI50 [4, 9]: 6.8 µM
GI50 [4, 10]: 3.39 µM
IC (TGI) [4]: 7.76 µM

CCCCCCCCCCCCOC[C@@]12O[C@@H](C)[C@@H](OCCN3CCCC3)[C@@H]1OC(C)(C)O2 [Il, 2,3-O-Isopropylidene-6-deoxy-1-O-dodecyl-4-O-ethylpyrrolidinyl-α-L-xylo-2-hexulofuranose]
IC50 [1]: < 1 µM
IC50 [2]: < 1 µM
IC50 [3]: < 1 µM
CC50 [4]: 28.8 µM
GI50 [4, 9]: 8.68 µM
GI50 [4, 10]: 4.07 µM
IC (TGI) [4]: 10.5 µM
in vitro activity in words [4]: significant activity

CCCCCCCCCCCCOC[C@@]12O[C@@H](C)[C@@H](OCCN3CCOCC3)[C@@H]1OC(C)(C)O2 [In, 2,3-O-Isopropylidene-6-deoxy-1-O-dodecyl-4-O-ethylmorpholinyl-α-L-xylo-2-hexulofuranose]
IC50 [1]: 3.8 µM
IC50 [2]: 10.5 µM
IC50 [3]: 12.9 µM
CC50 [4]: 91.2 µM
GI50 [4, 9]: 74.9 µM
GI50 [4, 10]: 36.3 µM
IC (TGI) [4]: 72.4 µM

CCCCCCCCCCCCOC[C@@]12O[C@@H](CN3CCCCCC3)[C@@H](OCCN3CCCC3)[C@@H]1OC(C)(C)O2 [Ir, 2,3-O-Isopropylidene-6-deoxy-1-O-dodecyl-4-O-ethylpyrrolidinyl-6-hexamethyleneimino-α-L-xylo-2-hexulofuranose]
IC50 [1]: < 1 µM
IC50 [2]: < 1 µM
IC50 [3]: < 1 µM
CC50 [4]: 21.4 µM
GI50 [4, 9]: 3.22 µM
GI50 [4, 10]: 1.78 µM
IC (TGI) [4]: 8.13 µM

CCCCCCCCCCCCOC[C@@]12O[C@@H](CN3CCCCCC3)[C@@H](OCCN3CCCCC3)[C@@H]1OC(C)(C)O2 [It, 2,3-O-Isopropylidene-6-deoxy-1-O-dodecyl-4-O-ethylpiperidinyl-6-hexamethyleneimino-α-L-xylo-2-hexulofuranose]
IC50 [1]: < 1 µM
IC50 [2]: < 1 µM
IC50 [3]: < 1 µM
CC50 [4]: 36.3 µM
GI50 [4, 9]: 2.38 µM
GI50 [4, 10]: 1.35 µM
IC (TGI) [4]: 7.76 µM

CCCCCCCCCCCCOC[C@@]12O[C@@H](CN3CCCCCC3)[C@@H](OCCCN3CCCCC3)[C@@H]1OC(C)(C)O2 [Iu, 2,3-O-Isopropylidene-6-deoxy-1-O-dodecyl-4-O-propylpiperidinyl-6-hexamethyleneimino-α-L-xylo-2-hexulofuranose]
IC50 [1]: < 1 µM
IC50 [2]: < 1 µM
IC50 [3]: < 1 µM
CC50 [4]: 28.8 µM
GI50 [4, 9]: 0.86 µM
GI50 [4, 10]: 0.501 µM
IC (TGI) [4]: 3.72 µM

CCCCCCCCCCCCOC[C@@]12O[C@@H](CN3CCCCCC3)[C@@H](OCCN3CCOCC3)[C@@H]1OC(C)(C)O2 [Iv, 2,3-O-Isopropylidene-6-deoxy-1-O-dodecyl-4-O-ethylmorpholinyl-6-hexamethyleneimino-α-L-xylo-2-hexulofuranose]
IC50 [1]: < 1 µM
IC50 [2]: < 1 µM
IC50 [3]: < 1 µM
CC50 [4]: 44.7 µM
GI50 [4, 9]: 3.2 µM
GI50 [4, 10]: 1.82 µM
IC (TGI) [4]: 11.5 µM

CCCCCCCCCCCCOC[C@@]12O[C@@H](CN3CCCCCC3)[C@@H](OCCCc3ccccc3)[C@@H]1OC(C)(C)O2 [Iw, 2,3-O-Isopropylidene-6-deoxy-1-O-dodecyl-4-O-phenylpropyl-6-hexamethyleneimino-α-L-xylo-2-hexulofuranose]
IC50 [1]: < 1 µM
IC50 [2]: < 1 µM
IC50 [3]: < 1 µM
CC50 [4]: 16.6 µM
GI50 [4, 9]: 4.18 µM
GI50 [4, 10]: 2.45 µM
IC (TGI) [4]: 10 µM
